Experimental data published in ChEMBL document CHEMBL3739395, “Discovery and optimisation of 1-acyl-2-benzylpyrrolidines as potent dual orexin receptor antagonists” (Medchemcomm, 2015).
pIC50: −log10 of the molar value. Values after ≈ are worked out from the molar mass of the structure shown. Active and inactive are the calls of the source. The rule behind the calls is not given here.

Experiments:
Orexin receptor type 2 = molecular target: T1, Orexin receptor type 2 (Homo sapiens, UniProt O43614); test: Inhibition of human orexin-2 receptor expressed in CHO cells assessed as calcium release preincubated for 120 mins followed by addition of orexin-A by fluo-4 AM based-FLIPR analysis; assay type: functional, cell-based
T1 sequence (O43614 whole entry): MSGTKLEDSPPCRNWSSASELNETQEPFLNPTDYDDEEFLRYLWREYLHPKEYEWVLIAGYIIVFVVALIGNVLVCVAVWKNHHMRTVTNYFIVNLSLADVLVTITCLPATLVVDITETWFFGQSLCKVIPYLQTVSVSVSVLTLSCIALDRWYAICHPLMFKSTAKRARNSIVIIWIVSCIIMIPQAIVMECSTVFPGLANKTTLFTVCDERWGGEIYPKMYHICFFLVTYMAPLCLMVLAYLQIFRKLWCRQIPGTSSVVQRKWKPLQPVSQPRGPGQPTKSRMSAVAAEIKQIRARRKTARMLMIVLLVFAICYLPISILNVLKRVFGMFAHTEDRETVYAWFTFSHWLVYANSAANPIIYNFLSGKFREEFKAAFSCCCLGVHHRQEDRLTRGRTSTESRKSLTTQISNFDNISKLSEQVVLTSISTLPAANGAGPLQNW

[1] = Intrinsic clearance in human liver microsomes at 1 uM; assay type: ADME; conditions: read-out: CLH
[2] = molecular target: T2, Orexin/Hypocretin receptor type 1 (Homo sapiens, UniProt O43613); test: Inhibition of human orexin-1 receptor expressed in CHO cells assessed as calcium release preincubated for 120 mins followed by addition of orexin-A by fluo-4 AM based-FLIPR analysis; assay type: functional, cell-based
T2 sequence (O43613 whole entry): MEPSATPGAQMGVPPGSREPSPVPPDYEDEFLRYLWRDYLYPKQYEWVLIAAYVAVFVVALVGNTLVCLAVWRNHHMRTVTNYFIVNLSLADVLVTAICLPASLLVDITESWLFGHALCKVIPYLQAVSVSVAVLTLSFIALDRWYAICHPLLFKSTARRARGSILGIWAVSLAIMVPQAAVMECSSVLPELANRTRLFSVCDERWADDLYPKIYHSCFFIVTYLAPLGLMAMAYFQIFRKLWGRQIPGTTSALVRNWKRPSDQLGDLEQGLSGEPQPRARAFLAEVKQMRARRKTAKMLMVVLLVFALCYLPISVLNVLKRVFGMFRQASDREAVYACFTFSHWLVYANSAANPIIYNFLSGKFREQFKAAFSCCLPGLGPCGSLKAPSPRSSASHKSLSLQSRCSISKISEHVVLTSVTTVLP

[3] = Drug uptake in Wistar rat brain at 100 mg/kg, po measured 3 hrs post dose; assay type: ADME, organism-based; conditions: read-out: Drug uptake
[4] = Drug uptake in Wistar rat cerebrospinal fluid at 100 mg/kg, po measured 3 hrs post dose; assay type: ADME, organism-based; conditions: read-out: Drug uptake
[5] = Ratio of drug level in brain to plasma in Wistar rat at 100 mg/kg, po measured 3 hrs post dose; assay type: ADME, organism-based; conditions: brain and plasma, read-out: BPR
[6] = Intrinsic clearance in rat liver microsomes at 1 uM; assay type: ADME; conditions: read-out: CLH
[7] = Plasma concentration in Wistar rat at 100 mg/kg, po measured 3 hrs post dose; assay type: ADME, organism-based
[8] = Solubility of compound in unbuffered water at pH 4.1; assay type: physicochemical
[9] = Clearance in rat; assay type: ADME, organism-based; conditions: in vivo
[10] = Oral bioavailability in rat; assay type: ADME, organism-based; conditions: in vivo
[11] = Lipophilicity, log D of the compound; assay type: physicochemical; conditions: octanol/water
Rattus norvegicus [12] = test: Reduction in home cage activity in Wistar rat sleep model at 100 mg/kg, po administered as single dose during first 6 hrs of night active period post dose relative to vehicle control; assay type: functional; parameters: scale not given: the % may be the effect or the level left
Rattus norvegicus [13] = test: Sleep promoting effect in Wistar rat sleep model at 100 mg/kg, po administered as single dose during first 6 hrs of night active period post dose relative to vehicle control; assay type: functional, organism-based
Rattus norvegicus [14] = test: Reduction in time spent in active wake state in Wistar rat sleep model at 100 mg/kg, po administered as single dose during first 6 hrs of night active period post dose relative to vehicle control; assay type: functional; parameters: scale not given: the % may be the effect or the level left
Rattus norvegicus [15] = test: Increase in time spent in quiet wake state in Wistar rat sleep model at 100 mg/kg, po administered as single dose during first 6 hrs of night active period post dose relative to vehicle control; assay type: functional
Rattus norvegicus [16] = test: Increase in time spent in non-rapid eye movement sleep in Wistar rat sleep model at 100 mg/kg, po administered as single dose during first 6 hrs of night active period post dose relative to vehicle control; assay type: functional
Rattus norvegicus [17] = test: Increase in time spent in rapid eye movement sleep in Wistar rat sleep model at 100 mg/kg, po administered as single dose during first 6 hrs of night active period post dose relative to vehicle control; assay type: functional
Cytochrome P450 3A4 = Cytochrome P450 3A4 (Homo sapiens, UniProt P08684); test: Inhibition of CYP3A4 (unknown origin) assessed as testosterone-6beta hydroxylation; assay type: ADME
Cytochrome P450 3A4, sequence (P08684 whole entry): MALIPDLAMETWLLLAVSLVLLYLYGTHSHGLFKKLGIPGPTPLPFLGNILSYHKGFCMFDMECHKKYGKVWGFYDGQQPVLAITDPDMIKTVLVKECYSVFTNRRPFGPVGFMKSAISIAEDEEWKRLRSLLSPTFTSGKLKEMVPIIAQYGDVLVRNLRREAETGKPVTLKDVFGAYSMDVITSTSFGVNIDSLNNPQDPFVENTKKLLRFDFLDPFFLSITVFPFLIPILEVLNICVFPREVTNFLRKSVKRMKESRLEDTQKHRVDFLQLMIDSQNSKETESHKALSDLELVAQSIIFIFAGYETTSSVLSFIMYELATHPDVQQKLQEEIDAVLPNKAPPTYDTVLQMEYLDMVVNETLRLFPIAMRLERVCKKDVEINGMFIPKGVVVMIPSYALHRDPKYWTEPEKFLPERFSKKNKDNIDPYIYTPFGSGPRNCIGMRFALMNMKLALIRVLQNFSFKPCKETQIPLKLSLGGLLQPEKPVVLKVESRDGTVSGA

Row | SMILES | pIC50 (Orexin receptor type 2) | microsomal CLint at 1 µM [1] [µL/min/mg] | pIC50 [2] | also measured
1 | COc1ccc(C[C@@H]2CCCN2C(=O)c2nc(C)ccc2-c2ncccn2)cc1OC | 7.15 | 17 | 7.22 | –
2 | Cc1cccc(-c2sc(C)nc2C(=O)N2CCC[C@H]2Cc2ccc3c(c2)OCCO3)c1 | 7.41 | 1040 | 7.46 | –
3 | COc1cccc(CCC2CCCCN2C(=O)c2cc(C)ccc2-n2nccn2)c1 (racemic) | 6.61 | 1170 | 6.97 | –
4 | COc1ccc(C[C@@H]2CCCN2C(=O)c2nc(C)sc2-c2cccc(C)c2)cc1OC | 8.51 | 338 | 8.46 | concentration at 3 h [3]: 125 ng/mL; concentration at 3 h [4]: 6 ng/mL; Kp at 3 h [5]: 0.97; microsomal CLint at 1 µM [6]: > 1250 µL/min/mg; concentration at 3 h [7]: 129 ng/mL
5 | CCn1cc(C(=O)N2CCCCC2Cc2ccc(OC)c(OC)c2)c2ccccc21 (racemic) | 6.99 | – | 7.55 | –
6 | COc1ccc(C[C@@H]2CCCN2C(=O)c2ccccc2-c2nc(C)no2)cc1OC | 7.92 | 129 | 7.48 | –
7 | COc1ccc(C[C@@H]2CCCN2C(=O)c2nccnc2-c2cccc(C)c2)cc1OC | 8.40 | 158 | 7.64 | concentration at 3 h [3]: 89 ng/mL; concentration at 3 h [4]: 22 ng/mL; Kp at 3 h [5]: 0.4; concentration at 3 h [7]: 225 ng/mL
8 | COc1ccc(C[C@@H]2CCCN2C(=O)c2nc(C)sc2-c2cccc(C)c2)cc1Cl | 8.74 | > 1250 | 8.42 | microsomal CLint at 1 µM [6]: > 1250 µL/min/mg
9 | COc1ccc(C[C@@H]2CCCN2C(=O)c2cc(C)ccc2-n2cccn2)cc1OC | 7.19 | > 1250 | 7.35 | –
10 | Cc1cccc(-c2sc(C)nc2C(=O)N2CCC[C@H]2Cc2ccc(C)c(Cl)c2)c1 | 8.00 | > 1250 | 7.89 | microsomal CLint at 1 µM [6]: > 1250 µL/min/mg
11 | COc1ccc(CCC2CCCCN2C(=O)c2cc(C)ccc2-n2nccn2)cc1OC (racemic) | 7.80 | 817 | 7.55 | –
12 | COc1ccc(C[C@@H]2CCCN2C(=O)c2nc(C)sc2-c2cccc(Cl)c2)cc1OC | 8.20 | 612 | 8.04 | –
13 | COc1cc(C[C@@H]2CCCN2C(=O)c2nc(C)sc2-c2cccc(C)c2)cc(OC)c1 | 8.37 | 798 | 8.47 | –
14 | COc1ccc(C[C@@H]2CCCN2C(=O)c2nc(C)sc2-c2ccc3c(c2)CCO3)cc1OC | 8.10 | 235 | 8.08 | –
15 | COc1ccc(-c2sc(C)nc2C(=O)N2CCC[C@H]2Cc2ccc(OC)c(OC)c2)cc1 | 8.00 | 210 | 7.77 | –
16 | COc1ccc(CC2c3sccc3CCN2C(=O)c2cc(C)ccc2-n2nccn2)cc1OC (racemic) | 6.37 | – | 6.88 | –
17 | COc1ccc(C[C@@H]2CCCN2C(=O)c2nc(C)sc2-c2ccc(F)cc2)cc1OC | 7.21 | 216 | 6.95 | –
18 | COc1cccc(-c2sc(C)nc2C(=O)N2CCC[C@H]2Cc2ccc(OC)c(OC)c2)c1 | 8.11 | 300 | 7.96 | –
19 | Cc1cccc(-c2sc(C)nc2C(=O)N2CCC[C@H]2Cc2ccc(Cl)c(Cl)c2)c1 | 7.18 | > 1250 | 7.66 | –
20 | COc1cccc(C[C@@H]2CCCN2C(=O)c2nc(C)sc2-c2cccc(C)c2)c1Cl | 7.80 | > 1250 | 7.59 | microsomal CLint at 1 µM [6]: > 1250 µL/min/mg
21 | COc1ccc(C[C@@H]2CCCN2C(=O)c2cc(C)ccc2-n2nccn2)cc1OC | 8.08 | 356 | 8.07 | microsomal CLint at 1 µM [6]: > 1250 µL/min/mg; solubility [8]: 160 µg/mL (≈ 394 µM); clearance [9]: 55 mL/min/kg; bioavailability [10]: < 10%; logD [11]: 3
22 | COc1ccc(C[C@@H]2CCCN2C(=O)c2ccccc2-c2ncccn2)cc1OC | 8.33 | 102 | 7.80 | concentration at 3 h [3]: 134 ng/mL; concentration at 3 h [4]: 113 ng/mL; Kp at 3 h [5]: 0.18; concentration at 3 h [7]: 737 ng/mL
23 | Cc1ccc(-n2nccn2)c(C(=O)N2CCN(c3nc4cc(Cl)ccc4o3)CC[C@H]2C)c1 [SUVOREXANT] | – | – | – | Activity (Rattus norvegicus [12]): -31%; Activity (Rattus norvegicus [13]): Active; Activity (Rattus norvegicus [14]): -16%; Activity (Rattus norvegicus [15]): 9%; Activity (Rattus norvegicus [16]): 19%; Activity (Rattus norvegicus [17]): 20%
24 | CCn1cc(C(=O)N2CCc3ccsc3C2Cc2ccc(OC)c(OC)c2)c2ccccc21 (racemic) | 8.85 | > 1250 | 8.27 | microsomal CLint at 1 µM [6]: > 1250 µL/min/mg; solubility [8]: 7 µg/mL (≈ 15.2 µM); pIC50 (Cytochrome P450 3A4): 5.52
25 | CNC(=O)[C@@H](c1ccccc1)N1CCc2cc(OC)c(OC)cc2[C@@H]1CCc1ccc(C(F)(F)F)cc1 [ALMOREXANT] | – | – | – | Activity (Rattus norvegicus [12]): -42%; Activity (Rattus norvegicus [13]): Active; Activity (Rattus norvegicus [14]): -20%; Activity (Rattus norvegicus [15]): -8%; Activity (Rattus norvegicus [16]): 22%; Activity (Rattus norvegicus [17]): 50%
26 | COc1ccc(C[C@@H]2CCCN2C(=O)c2ccccc2-n2nccn2)cc1OC | 8.46 | 104 | 7.80 | concentration at 3 h [3]: 45 ng/mL; concentration at 3 h [4]: 12 ng/mL; Kp at 3 h [5]: 0.39; microsomal CLint at 1 µM [6]: > 1250 µL/min/mg; concentration at 3 h [7]: 114 ng/mL
27 | COc1ccc(CC2CCCCN2C(=O)c2cc(C)ccc2-n2nccn2)cc1OC (racemic) | 8.48 | 616 | 8.57 | –
28 | COc1ccc(Cl)c(C[C@@H]2CCCN2C(=O)c2nc(C)sc2-c2cccc(C)c2)c1 | 7.74 | 996 | 7.48 | microsomal CLint at 1 µM [6]: > 1250 µL/min/mg
29 | Cc1cccc(-c2sc(C)nc2C(=O)N2CCC[C@H]2Cc2ccc3c(c2)OCO3)c1 | 7.40 | 124 | 7.19 | –
